Assay [1] relates to NOx in rat plasma. The experiment in a line: Concentration of nitrite/nitrate (NOx) in rat plasma after cardiac transplantation (Griess reaction). Format: in vivo. How it is done:
(§1) Experiments were performed on male Lewis and ACI rats weighing 175-200 g. Rats were anesthetized with sodium pentobarbital (50 mg/kg, i.p), and performed allogeneic (Lewis donor to ACI recipient) heterotopic intra-abdominal cardiac transplantation. Experimental groups were divided into single-drug group and combined-drug groups. Single-drug dose of FK506 was 0.32 mg/kg. Combined-dose groups were FK506(0.32 mg/kg)+the compound (f) (3.2 mg/kg), FK506(0.32 mg/kg)+the compound (f) (10 mg/kg), and FK506(0.32 mg/kg)+the compound (g) (10 mg/kg). The grafted hearts were monitored by daily palpation and complete rejection was defined as the cessation of palpable contractile activity. Drugs were suspended in a solution of 0.5% methylcellulose, and administered by daily gastric intubation in a volume of 5 ml/kg of body weight for 14 days. The blood samples were collected on 5 days after transplantation for analysis of nitrite/nitrate (NOx). The concentration of NOx in rat plasma was measured by using a spectrophotometric assay based upon the Griess reaction.
For orientation: The Griess reaction detects nitrite, a stable product of nitric oxide.

In assay [2] the test system is rat cardiac allograft. The experiment in a line: Rat cardiac allograft survival (Lewis donor to ACI recipient, heterotopic intra-abdominal cardiac transplantation). Type of assay: in vivo. The note with it: for MST (Median Survival Time): daily gastric intubation for 14 days. How it is done: Protective effect of the compound (f) or (g) combined with FK506 on rat cardiac allograft:
as §1

Assay [3] concerns production of nitric oxide in RAW264.7 cells. The experiment in a line: Assay for inhibitory activity on the production of nitric oxide (Griess, LPS + INFγ activated cells). Type of assay: cell-based, murine. The following applies: Mus musculus; test compound 10^-5 M; RAW264.7 cells activated with LPS 1 μg/ml and INFγ 3 u/ml for 18-24 hours. How it is done:
Test: Assay for Inhibitory Activity on the Production of Nitric Oxide
The murine macrophage cell line RAW264.7 (American Type Culture Collection, No. TIB71) was used in this study. RAW264.7 cells were grown on F75 plastic culture flasks at 37° C., 5% in Dulbecco's modified Eagle's medium (DMEM) supplemented with L-glutamine, penicillin, streptomycin and 10% heat-inactivated fetal bovine serum. They were removed from culture flasks by rubber cell scraper and were centrifuged and resuspended in DMEM without phenol red. They were plated in 96-well microtiter plates (10^5 cells per well) and allowed to adhere over 2 hours. The test samples were added and the cells were preincubated for 1 hour. Thereafter the cells were activated with both of lipopolysaccharide (LPS) (1 μg/ml) and interferon γ (INFγ) (3 u/ml) for 18-24 hours. An equal volume of Griess reagent (1% sulfanilamide/0.1% N-naphthylethylenediamine dihydrochloride/2.5% H3PO4) was added and the cells were incubated at room temperature for 10 minutes. The absorbance was read at 570 nm using microplate reader and NO2 was measured using NaNO2 as a standard.

Bounds are passed on as bounds.

As to `C=CC[C@@H]1/C=C(\C)C[C@H](C)C[C@H](OC)[C@H]2O[C@@](O)(C(=O)C(=O)N3CCCC[C@H]3C(=O)O[C@H](/C(C)=C/[C@@H]3CC[C@@H](O)[C@H](OC)C3)[C@H](C)[C@@H](O)CC1=O)[C@H](C)C[C@@H]2OC` [FK506, 17-allyl-1,14-dihydroxy-12-[2-(4-hydroxy-3-methoxycyclohexyl)-1-methylvinyl]-23,25-dimethoxy-13,19,21,27-tetramethyl-11,28-dioxa-4-azatricyclo[22.3.1.0^4,9]octacos-18-ene-2,3,10,16-tetraone, reference compound], the NOx in assay [1] (Table 1, FK506 0.32 mg/kg alone, rat plasma, 5 days after transplantation) is more than 40 µM. The “MST (Median Survival Time)” value in assay [2] (Table 1, FK506 0.32 mg/kg alone) is 8.5 days; in assay [2] (Table 2, FK506 0.32 mg/kg alone), 10 days.

A word on the inhibition: it is how much of the control response was suppressed. As for `Cn1c(-c2ccc([N+](=O)[O-])cc2)cnc1[C@H](Cc1ccccn1)NC(=O)c1cc2cc(Cl)ccc2[nH]1` [(b)], the inhibition at 10 µM in assay [3] was found to be 100%.

On to `Cn1c(-c2ccc([N+](=O)[O-])cc2)cnc1[C@H](CC(=O)Nc1ccccn1)NC(=O)c1cc2ccccc2[nH]1` [(c)], for which the inhibition at 10 µM in assay [3] is 100%.

In the case of `COc1ccc(NC(=O)C[C@H](NC(=O)c2cc3ccccc3[nH]2)c2ncc(-c3ccc([N+](=O)[O-])cc3)n2C)cc1` [(d)], in assay [3], the inhibition at 10 µM came to 100%.

For the molecule `Cn1c(-c2ccc([N+](=O)[O-])cc2)cnc1[C@H](CC(=O)Nc1ccc2c(c1)OCO2)NC(=O)c1cc2ccccc2[nH]1` [(e)], the inhibition at 10 µM in assay [3] came out at 100%.

Turning to `Cn1c(-c2ccc(N3CCOCC3)cc2)cnc1[C@H](Cc1ccccn1)NC(=O)c1cc2cc(Cl)ccc2o1` [(g)], the “elevated NOx production during cardiac allograft rejection” value in assay [1] (rat cardiac allograft, in a dose-dependent manner) is recorded as “inhibited”. The inhibition at 10 µM in assay [3] is 100%. The “MST (Median Survival Time)” value in assay [2] (Table 2, compound (g) 10 mg/kg + FK506 0.32 mg/kg) was more than 30 days. Further, the graft survival entry in assay [2] (combination with FK506, rat cardiac allograft) was “dramatically prolonged”.

For `CCOc1ccc(-c2c(Cc3ccccc3)nc([C@H](Cc3ccccn3)NC(=O)c3cc4ccccc4[nH]3)n2C)cc1` [(a)], the inhibition at 10 µM in assay [3] turned out to be 100%.

The record behind these values is patent publication US6673807B1, “Immunosuppressive imidazole derivatives and their combination preparations with tacrolimus or cyclosporins” (Fujisawa Pharmaceutical Co., Ltd., priority 1998, dated 2004).
